US5164411A, “Pyrethroid compositions” (priority 1991, dated 1992)
≈ marks a conversion by molar mass, not a printed value.

Key:
[1] = Ninety-six-hour flow-through acute toxicity, sheepshead minnow; type: in vivo, Cyprinodon variagatus; conditions: 96 h flow-through, filtered seawater
Method: Ninety-six-hour flow-through acute toxicity studies of both cypermethrin and sigma-cypermethrin were conducted in the rainbow trout (Oncorhynchus mykiss) and in the sheepshead minnow (Cyprinodon variagatus) to determine the median-lethal-concentration (LC50) resulting from continuous exposure. For the rainbow trout the exposure medium was well water; for the sheepshead minnow, filtered seawater. Each group of 20 fish (10 per replicate aquarium) was exposed either to one of five concentrations of pyrethroid delivered in a diluter system in dimethylformamide (DMF), to 30 μL/L DMF in the exposure medium (solvent control), or to the exposure medium alone (control). Observations for mortality, morbidity, and other overt signs of toxicity were determined at prescribed intervals. Concentrations of the test materials were measured at the beginning and end of the exposure using a validated HPLC method. The cypermethrin isomer content (weight %) of the sigma-cypermethrin technical product used in this study was total isomers--88.2%, S-isomers--82%, cis/trans ratio--53/47.

[2] = system: cabbage looper (Trichoplusia ni); assay: Foliar evaluation, cabbage looper (CL); type: in vivo; conditions: for LC50: Trichoplusia ni, foliar, pinto beans, mortality at 48 hours
Method: (§1) Cypermethrin and sigma-cypermethrin were tested by foliar application at various concentrations in aqueous solutions containing 9.75% acetone and 0.25% octylphenoxypolyethoxyethanol. Insect species utilized included the cabbage looper (Trichoplusia ni), southern armyworm (Spodoptera eridania), Mexican bean beetle (Epilachna varivestis), tobacco budworm (Heliothis virescens), and corn earworm (Heliothis zea).
(§2) For all insects, pinto beans (Phaseolus vulgaris) plants were treated with the test solutions. The test solutions were applied with a sprayer to the upper and lower surfaces of the plant leaves to runoff. The plants were then allowed to dry and were severed at the base of the stem before being placed in cups. Ten second instar individuals of the appropriate insect species, except the tobacco budworm and corn earworm, were placed in each cup and the cup covered. Tests with the tobacco budworm and corn earworm used four replicates with each replicate containing five second instar insects. In all tests, mortality was read 48 hours later. The sigma-cypermethrin used in the foliar evaluations was the product of Example 2.

[3] = system: female Sprague-Dawley rats; assay: Teratology; type: in vivo, Sprague-Dawley rat; conditions: for embryotoxic or teratogenic effect: at any dose
Method: (§3) These tests were conducted in compliance with EPA guideline 83-3 for the purpose of determining the effects of the test materials on pregnancy and in utero development. The test materials were administered via gavage in corn oil once daily to female Sprague-Dawley rats on days 6 through 15 of presumed gestation. There were 25 animals per dose group. Dosages of 0, 17.5, 37.5, and 75 mg/kg for cypermethrin and 0, 5, 12.5, 25, and 35 mg/kg for sigma-cypermethrin were administered. The cypermethrin isomer content (weight %) of the sigma-cypermethrin technical product used in this study was total isomers--89.1%, S-isomers--82%, cis/trans ratio--51/49. The control animals (0 mg/kg) received corn oil during the treatment period. All dosages were adjusted daily on the basis of body weights.
(§4) Daily observations of the rats were made during the dosage and postdosage periods. On gestation day 20 to 21 the rats were sacrificed for examination of their uterine contents, including the number of live and dead fetuses and the number of resorptions. Fetuses were subsequently examined for malformations.

Teratology = type: in vivo, Sprague-Dawley rat; conditions: rat, po; gavage in corn oil, once daily, gestation days 6 through 15; read-out: NOEL
Method: as §3, §4

[4] = system: southern armyworm (Spodoptera eridania); assay: Foliar evaluation, southern armyworm (SAW); type: in vivo; conditions: for LC50: Spodoptera eridania, foliar, pinto beans, mortality at 48 hours
Method: as §1, §2

Heliothis sp. = assay: Field trials on cotton, control of Heliothis sp.; type: in vivo, Heliothis virescens and Heliothis zea; conditions: for Yield: seed cotton per acre
Text: Plots were a minimum of 0.2 acres, and all applications were by commercial ground equipment with a minimum of 10 gallons total spray solution per acre. The cypermethrin isomer content (weight %) of the several sigma-cypermethrin technical products used in the field trials were as follows:
Analysis of the data was based on a seasonal average of multiple evaluations taken over a four to six week period (3-4 applications) in trials for control of Heliothis sp.

[5] = Year 1, 0.022 lb ai/A, seasonal mean of 3 trials (MS, LA)
[6] = Year 1, 0.03 lb ai/A, seasonal mean of 3 trials (MS, LA)
[7] = Year 2, 0.026 lb ai/A, seasonal mean of 4 trials (MS, LA)
[8] = Year 3, 0.013 lb ai/A, seasonal mean of 6-8 trials (MS, LA, AL, GA)
[9] = Year 3, 0.026 lb ai/A, seasonal mean of 6-8 trials (MS, LA, AL, GA)
[10] = Year 3, 0.039 lb ai/A, seasonal mean of 6-8 trials (MS, LA, AL, GA)
[11] = Year 1, 0.06 lb ai/A, seasonal mean of 3 trials (MS, LA)
[12] = Year 2, 0.06 lb ai/A, seasonal mean of 4 trials (MS, LA)
[13] = Year 3, 0.06 lb ai/A, seasonal mean of 6-8 trials (MS, LA, AL, GA)

With `CC1(C)C(C=C(Cl)Cl)C1C(=O)O[C@H](C#N)c1cccc(Oc2ccccc2)c1` (mixture of isomers) [sigma-cypermethrin, (S)(cyano)(3-phenoxyphenyl)methyl cis/trans-3-(2,2-dichloroethenyl)-2,2-dimethylcyclopropanecarboxylate] the LC50 at 96 h [1] was 0.00237 µg/mL, the LC50 [2] was 1.4 µg/mL and the “Relative Potency” value ([2]; vs cypermethrin, CL) was 1.6. For the same compound, the “embryotoxic or teratogenic effect” value [3] was “no embryotoxic or teratogenic effect”, the “amount required to show an effect on rats relative to that expected from effect on insects” value ([3]; teratology) was 1.4 times and the NOAEL (Teratology) was 12.5 mg/kg. The LC50 [4] was 1.8 µg/mL, the “Relative Potency” value ([4]; vs cypermethrin, SAW) was 2.3 and the “% Hel. Live Larv.” value (Heliothis sp.; [5]) was 10%. For the same compound, the “% Hel. Sq. Dam.” value (Heliothis sp.; [5]) was 9%, the Yield (Heliothis sp.; Year 1, 0.022 lb ai/A, 3 trials (MS, LA)) was 2828 lb SC/A and the “% Hel. Live Larv.” value (Heliothis sp.; [6]) was 8%. The “% Hel. Sq. Dam.” value (Heliothis sp.; [6]) was 9%, the Yield (Heliothis sp.; Year 1, 0.03 lb ai/A, 3 trials (MS, LA)) was 2795 lb SC/A and the “% Hel. Live Larv.” value (Heliothis sp.; [7]) was 3%. For the same compound, the “% Hel. Sq. Dam.” value (Heliothis sp.; [7]) was 3%, the “% Hel. Live Larv.” value (Heliothis sp.; [8]) was 6% and the “% Hel. Sq. Dam.” value (Heliothis sp.; [8]) was 3%. For the same compound, the Yield (Heliothis sp.; Year 3, 0.013 lb ai/A, 6-8 trials) was 2818 lb SC/A, the “% Hel. Live Larv.” value (Heliothis sp.; [9]) was 5% and the “% Hel. Sq. Dam.” value (Heliothis sp.; [9]) was 4%. For the same compound, the Yield (Heliothis sp.; Year 3, 0.026 lb ai/A, 6-8 trials) was 2778 lb SC/A, the “% Hel. Live Larv.” value (Heliothis sp.; [10]) was 5% and the “% Hel. Sq. Dam.” value (Heliothis sp.; [10]) was 3%. The Yield (Heliothis sp.; Year 3, 0.039 lb ai/A, 6-8 trials) was 2692 lb SC/A.
With `CC1(C)C(C=C(Cl)Cl)C1C(=O)OC(C#N)c1cccc(Oc2ccccc2)c1` (centres unmarked) [cypermethrin, (cyano)(3-phenoxyphenyl)methyl 3-(2,2-dichloroethenyl)-2,2-dimethylcyclopropanecarboxylate, reference compound] the LC50 at 96 h [1] was 0.00388 µg/mL (≈ 0.00932 µM), the LC50 [2] was 2.3 µg/mL (≈ 5.52 µM) and the “embryotoxic or teratogenic effect” value [3] was “no embryotoxic or teratogenic effect”. For the same compound, the NOAEL (Teratology) was 17.5 mg/kg, the LC50 [4] was 4.2 µg/mL (≈ 10.1 µM) and the “% Hel. Live Larv.” value (Heliothis sp.; [11]) was 9%. For the same compound, the “% Hel. Sq. Dam.” value (Heliothis sp.; [11]) was 9%, the Yield (Heliothis sp.; Year 1, 0.06 lb ai/A, 3 trials (MS, LA)) was 2641 lb SC/A and the “% Hel. Live Larv.” value (Heliothis sp.; [12]) was 2%. The “% Hel. Sq. Dam.” value (Heliothis sp.; [12]) was 3%, the “% Hel. Live Larv.” value (Heliothis sp.; [13]) was 4% and the “% Hel. Sq. Dam.” value (Heliothis sp.; [13]) was 3%. It also gave a Yield (Heliothis sp.; Year 3, 0.06 lb ai/A, 6-8 trials) of 2675 lb SC/A.
